Source: US20230085307A1, “PYRIDAZINONE COMPOUND AND HERBICIDE” (NISSAN CHEMICAL CORPORATION, priority 2019, published 2023)

Assays:
green foxtail = experiment: Test Example 5: herbicidal effect by foliage application, plastic box (Table 20, symbol G); assay type: in vivo, green foxtail (Setaria viridis); settings: foliage application, 3 weeks after application
Summary of the method: (§1)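 Post-emergence foliar test in sterilized diluvial soil. Compound applied as water-diluted emulsion at a predetermined rate to 14-day-old plants; evaluation at three weeks.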

Italian ryegrass [1] = experiment: Test Example 4: herbicidal effect by soil treatment (Table 19, symbol K); assay type: in vivo, Italian ryegrass (Lolium multiflorum)
Summary of the method: (§2)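 Emulsion of test compound, water-diluted to predetermined amount, sprayed on soil after sowing (seed depth ~1.5 cm, sterilized diluvial soil). Greenhouse, 25–30° C. Effect graded at three weeks post-spray.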

lambsquarters = experiment: Test Example 4: herbicidal effect by soil treatment (Table 19, symbol O); assay type: in vivo, lambsquarters (Chenopodium album)
Summary of the method: as §2

windgrass = experiment: Test Example 4: herbicidal effect by soil treatment (Table 19, symbol L); assay type: in vivo, windgrass (Apera spica-venti)
Summary of the method: as §2

chickweed = experiment: Test Example 4: herbicidal effect by soil treatment (Table 19, symbol P); assay type: in vivo, common chickweed (Stellaria media)
Summary of the method: as §2

late watergrass [2] = experiment: Test Example 1: herbicidal activity, application before weed generation under submerged conditions (Table 16, symbol A); assay type: in vivo, late watergrass (Echinochloa oryzicola)
Summary of the method: (§3)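 Submerged Wagner pots (alluvial soil, 4 cm water) sown with weed seeds and planted with 2.5-leaf rice seedlings; emulsifiable concentrate diluted in water applied to water surface on sowing day. Held in greenhouse at 25-30 °C; injury scored 0-5 by herbicidal rate after three weeks.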

southern crabgrass = experiment: Test Example 4: herbicidal effect by soil treatment (Table 19, symbol F); assay type: in vivo, southern crabgrass (Digitaria ciliaris)
Summary of the method: as §2

blackgrass = experiment: Test Example 5: herbicidal effect by foliage application, plastic box (Table 20, symbol J); assay type: in vivo, blackgrass (Alopecurus myosuroides); settings: foliage application, 3 weeks after application
Summary of the method: as §1

wild oat [3] = experiment: Test Example 5: herbicidal effect by foliage application, plastic box (Table 20, symbol I); assay type: in vivo, wild oat (Avena fatua); settings: foliage application, 3 weeks after application
Summary of the method: as §1

wild oat [4] = experiment: Test Example 4: herbicidal effect by soil treatment (Table 19, symbol I); assay type: in vivo, wild oat (Avena fatua)
Summary of the method: as §2

late watergrass [5] = experiment: Test Example 2: herbicidal activity, application during weed generation under submerged conditions (Table 17, symbol A); assay type: in vivo, late watergrass (Echinochloa oryzicola); settings: application during weed generation, submerged conditions
Summary of the method: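 Herbicide emulsion, diluted with water to the chosen amount, is applied onto 4 cm floodwater over alluvial soil where the weeds were co-sown and raised at 25–30° C. Application timing: 1–2 leaves. Assessment: three weeks afterwards.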

rice flat sedge = experiment: Test Example 3: herbicidal effect by foliage application, Wagner pot (Table 18, symbol E); assay type: in vivo, rice flat sedge (Cyperus iria)
Summary of the method: (§4)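 Plants were sown in alluvial soil held under 0.1–0.5 cm standing water and grown 14 days in a greenhouse at 25–30 °C. An emulsifiable formulation, water-diluted to the set dose, was then sprayed onto the foliage, and effects were scored three weeks later using previously defined criteria.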

velvetleaf = experiment: Test Example 5: herbicidal effect by foliage application, plastic box (Table 20, symbol M); assay type: in vivo, velvetleaf (Abutilon theophrasti); settings: foliage application, 3 weeks after application
Summary of the method: as §1

barnyard grass = experiment: Test Example 5: herbicidal effect by foliage application, plastic box (Table 20, symbol H); assay type: in vivo, barnyard grass (Echinochloa crus-galli); settings: foliage application, 3 weeks after application
Summary of the method: as §1

Italian ryegrass [6] = experiment: Test Example 5: herbicidal effect by foliage application, plastic box (Table 20, symbol K); assay type: in vivo, Italian ryegrass (Lolium multiflorum); settings: foliage application, 3 weeks after application
Summary of the method: as §1

Japanese bulrush = experiment: Test Example 1: herbicidal activity, application before weed generation under submerged conditions (Table 16, symbol B); assay type: in vivo, Japanese bulrush (Schoenoplectus juncoides)
Summary of the method: as §3

Chinese sprangletop = experiment: Test Example 3: herbicidal effect by foliage application, Wagner pot (Table 18, symbol D); assay type: in vivo, chinese sprangletop (Leptochloa chinensis)
Summary of the method: as §4

## CCCC(=O)Oc1c(C)nn(C)c(=O)c1-c1c(-c2ccccc2OCC)sc2ccc(F)cc12 [2-029]
Green foxtail; 266 g/ha
  effect on green foxtail (G): 4 (Herbicidal rate of 70% or more and less than 90%)
Italian ryegrass [1]; 266 g/ha
  herbicidal effect rating, K: Italian ryegrass: 0 (Herbicidal rate of 5% or less (almost no effect))
lambsquarters; 266 g/ha
  herbicidal effect rating, O: lambsquarters: 4 (Herbicidal rate of 70% or more and less than 90%)
windgrass; 266 g/ha
  herbicidal effect rating, L: windgrass: 0 (Herbicidal rate of 5% or less (almost no effect))
chickweed; 266 g/ha
  herbicidal effect rating, P: chickweed: 3 (Herbicidal rate of 40% or more and less than 70%)
Late watergrass [2]; 266 g/ha applied herbicide
  Herbicidal effect on A: late watergrass (grade 0-5): 2 (Herbicidal rate of 20% or more and less than 40%)
Southern crabgrass; 266 g/ha
  herbicidal effect rating, F: southern crabgrass: 3 (Herbicidal rate of 40% or more and less than 70%)
blackgrass; 266 g/ha
  effect on blackgrass (J): 1 (Herbicidal rate of 5% or more and less than 20%)
Wild oat [3]; 266 g/ha
  effect on wild oat (I): 3 (Herbicidal rate of 40% or more and less than 70%)
Wild oat [4]; 266 g/ha
  herbicidal effect rating, I: wild oat: 3 (Herbicidal rate of 40% or more and less than 70%)
Late watergrass [5]; AAH 266 g/ha
  herbicidal effect rating, A: late watergrass: 3 (Herbicidal rate of 40% or more and less than 70%)
Rice flat sedge; 266 g/ha
  herbicidal effect on E (rice flat sedge), rating 0-5: 3 (Herbicidal rate of 40% or more and less than 70%)
velvetleaf; 266 g/ha
  effect on velvetleaf (M): 5 (Herbicidal rate of 90% or more (almost completely withered))
Barnyard grass; 266 g/ha
  effect on barnyard grass (H): 5 (Herbicidal rate of 90% or more (almost completely withered))
Italian ryegrass [6]; 266 g/ha
  effect on Italian ryegrass (K): 2 (Herbicidal rate of 20% or more and less than 40%)
Japanese bulrush; 266 g/ha applied herbicide
  Herbicidal effect on B: Japanese bulrush (grade 0-5): 0 (Herbicidal rate of 5% or less (almost no effect))
Chinese sprangletop; 266 g/ha
  herbicidal effect on D (Chinese sprangletop), rating 0-5: 3 (Herbicidal rate of 40% or more and less than 70%)

## CCCOc1ccc(-c2sc3ccc(F)cc3c2-c2c(O)c(C)nn(C)c2=O)cc1 [2-032]
Green foxtail; 320 g/ha
  effect on green foxtail (G): 5 (Herbicidal rate of 90% or more (almost completely withered))
Italian ryegrass [1]; 320 g/ha
  herbicidal effect rating, K: Italian ryegrass: 0 (Herbicidal rate of 5% or less (almost no effect))
lambsquarters; 320 g/ha
  herbicidal effect rating, O: lambsquarters: 5 (Herbicidal rate of 90% or more (almost completely withered))
windgrass; 320 g/ha
  herbicidal effect rating, L: windgrass: 0 (Herbicidal rate of 5% or less (almost no effect))
chickweed; 320 g/ha
  herbicidal effect rating, P: chickweed: 4 (Herbicidal rate of 70% or more and less than 90%)
Late watergrass [2]; 320 g/ha applied herbicide
  Herbicidal effect on A: late watergrass (grade 0-5): 4 (Herbicidal rate of 70% or more and less than 90%)
Southern crabgrass; 320 g/ha
  herbicidal effect rating, F: southern crabgrass: 2 (Herbicidal rate of 20% or more and less than 40%)
blackgrass; 320 g/ha
  effect on blackgrass (J): 5 (Herbicidal rate of 90% or more (almost completely withered))
Wild oat [3]; 320 g/ha
  effect on wild oat (I): 3 (Herbicidal rate of 40% or more and less than 70%)
Wild oat [4]; 320 g/ha
  herbicidal effect rating, I: wild oat: 0 (Herbicidal rate of 5% or less (almost no effect))
Late watergrass [5]; AAH 320 g/ha
  herbicidal effect rating, A: late watergrass: 1 (Herbicidal rate of 5% or more and less than 20%)
Rice flat sedge; 320 g/ha
  herbicidal effect on E (rice flat sedge), rating 0-5: 5 (Herbicidal rate of 90% or more (almost completely withered))
velvetleaf; 320 g/ha
  effect on velvetleaf (M): 5 (Herbicidal rate of 90% or more (almost completely withered))
Barnyard grass; 320 g/ha
  effect on barnyard grass (H): 5 (Herbicidal rate of 90% or more (almost completely withered))
Italian ryegrass [6]; 320 g/ha
  effect on Italian ryegrass (K): 4 (Herbicidal rate of 70% or more and less than 90%)
Japanese bulrush; 320 g/ha applied herbicide
  Herbicidal effect on B: Japanese bulrush (grade 0-5): 4 (Herbicidal rate of 70% or more and less than 90%)
Chinese sprangletop; 320 g/ha
  herbicidal effect on D (Chinese sprangletop), rating 0-5: 3 (Herbicidal rate of 40% or more and less than 70%)
